How the values were obtained:
PKCα = biological target: T1, PKCα (Homo sapiens, UniProt P17252); test: Protein kinase C assay, recombinant PKC alpha; assay type: biochemical; details: data not shown
T1 construct: purchased Calbiochem
Method: Protein kinase C assay. Recombinant PKC (1 ng of alpha or epsilon isofonn) was mixed with the BR-101 (UCP-LA) in the presence of 10 micromoiar histones, 5 mM CaCl2, 1.2 μg/μl phosphatidyl-L-serine, 0.18 μg/μl 1,2-dioctanoyl-sn-glycerol (DAG), […], […] (pH 7.4), 0.8 tnIVI EDTA, 4 mM EGTA, 4% glycerol, 8 μg/ml aprotinin, 8 μ/ml leupeptin, and 2 mM benzamidine. 0.5 micro Ci [^y32P]ATP was added. The incubation mixture was incubated for 15 min at 37 degrees in a total volume of 10 microliters. The reaction was stopped by spotting the reaction mixtures on 1×2 cm strips of cellulose phosphate paper (Whatman P81) and immediately washing twice for 1 hr in 0.5% H3PO4. The cellulose phosphate strips were counted in a scintillation counter. In some experiments, phosphatidylserine, diacylglycerol, and/or calcium were removed.

PKCγ = biological target: T2, PKCγ (Homo sapiens, UniProt P05129); test: Protein kinase C assay, purified PKC isozymes: PKCγ; assay type: biochemical; details: higher concentrations, 50-100 μM; data not shown
T2 construct: purchased Calbiochem
Method: (§1) Protein kinase C assay. Rat hippocampal cells were cultured and scraped in 0.2 ml homogenization buffer (20 triM Tris-HCl, pH 7.4, 50 mM NaF, 1 μg/ml leupeptin, and 0.1 mM PMSF) and homogenized by sonication in a Marsonix micro-probe sonicator (5 see, 10W). To measure PKC, 10 ul of cell homogenate or purified. PKC isozyme (purchased from Calbiochem) was incubated for 15 min at 37° C. in the presence of 10 μM histones, 4.89 mM CaCl2, 1.2 μg/μl phosphatidyl-L-serine, 0.18 μg/μl 1,2-dioctanoyl-sn-glycerol, 10 mM MgCl2, 20 mM HEPES (pH 7.4), 0.8 mM EDTA, 4 mM EGTA, 4% glycerol, 8 μg/ml aprotinin, 8 μg/ml leupeptin, and 2 mM benzamidine. 0.5 μCi [^γ-32P]ATP was added and ^32P-phosphoprotein formation was measured by adsorption onto phosphocellulose as described previously. Nelson and Alkon, J. Neurochemistry. 1995; 65: 2350-57. For measurements of activation by BR-101 (DCP-LA) and similar compounds, PKC activity was measured in the absence of diacylglycerol and phosphatidyl serine, as described by Kanno et al., and PKC δ, ε, η, and μ were measured in the absence of added EGTA and CaCl2, as described by Kanno et al., J. Lipid Res. 2006; 47: 1146-50. […]
(§2) To determine their PKC isozyme specificity, the new compounds were preincubated with purified PKC for five minutes and the PKC activity was measured radiometrically.

other PKC isoforms = test: Protein kinase C assay, purified PKC isozymes: other isoforms; assay type: biochemical; details: data not shown
Method: as §1, §2

PKC [1] = test: PKC activity time course in rat H19-7/IGF-IR hippocampal cells; assay type: cell-based
Method: (§3) Cell culture. Rat hippocampal H19-71GF-IR cells (ATCC, Manassas, Va.) were plated onto poly-L-lysine coated plates and grown at 35° C. in DMEM/10% FCS for several days until about 50% coverage was obtained. The cells were then induced to differentiate into a neuronal phenotype by replacing the medium with 5 ml N2 medium containing 10 ng/ml basic fibroblast growth factor at 39° C. and grown in T-75 flasks at 37° C. Human SH-SY5Y neuroblastoma cells (ATCC) were cultured in 45% F12K/45% MEM/10% FCS. Mouse N2A neuroblastoma cells were cultured in DMEM/10% FCS without glutamine. Rat hippocampal neurons from 18-day-old embryonic
Protein kinase C assay. Rat hippocampal cells were cultured and scraped in 0.2 ml homogenization buffer (20 triM Tris-HCl, pH 7.4, 50 mM NaF, 1 μg/ml leupeptin, and 0.1 mM PMSF) and homogenized by sonication in a Marsonix micro-probe sonicator (5 see, 10W). To measure PKC, 10 ul of cell homogenate or purified. PKC isozyme (purchased from Calbiochem) was incubated for 15 min at 37° C. in the presence of 10 μM histones, 4.89 mM CaCl2, 1.2 μg/μl phosphatidyl-L-serine, 0.18 μg/μl 1,2-dioctanoyl-sn-glycerol, 10 mM MgCl2, 20 mM HEPES (pH 7.4), 0.8 mM EDTA, 4 mM EGTA, 4% glycerol, 8 μg/ml aprotinin, 8 μg/ml leupeptin, and 2 mM benzamidine. 0.5 μCi [^γ-32P]ATP was added and ^32P-phosphoprotein formation was measured by adsorption onto phosphocellulose as described previously. Nelson and Alkon, J. Neurochemistry. 1995; 65: 2350-57. For measurements of activation by BR-101 (DCP-LA) and similar compounds, PKC activity was measured in the absence of diacylglycerol and phosphatidyl serine, as described by Kanno et al., and PKC δ, ε, η, and μ were measured in the absence of added EGTA and CaCl2, as described by Kanno et al., J. Lipid Res. 2006; 47: 1146-50. Low concentrations of Ca^2+ are used because high Ca^2+ interacts with the PKC phosphatidylserine binding site and prevents activation. For measurements of bryostatin activation, 1,2-diacylglycerol was omitted unless otherwise stated.

PKC [2] = test: PKC activity time course in rat hippocampal primary neurons; assay type: cell-based; details: sustained activation only observed in primary neurons
Method: as §3
Sprague Dawley rat brains were plated on 12- or 96-well plates coated with poly-D-lysine (Sigma-Aldrich, St, Louis, Mo.) in B-27 neurobasal medium containing 0.5 mM glutamine and 25 uM glutamate (Invitrogen, Carlsbad, Calif.) and cultured for three days in the medium without glutamate. […]
Protein kinase C assay. […] 0.5 μCi [^γ-32P]ATP was added and ^32P-phosphoprotein formation was measured by adsorption onto phosphocellulose as described previously. […] For measurements of activation by BR-101 (DCP-LA) and similar compounds, PKC activity was measured in the absence of diacylglycerol and phosphatidyl serine, as described by Kanno et al., and PKC δ, ε, η, and μ were measured in the absence of added EGTA and CaCl2, as described by Kanno et al., J. Lipid Res. 2006; 47: 1146-50. […]

PKCε = biological target: T3, PKCε (Homo sapiens, UniProt Q02156); details: Kanno et al.; cited from earlier work
T3 construct: purchased Calbiochem
T3 sequence (Q02156 1-737): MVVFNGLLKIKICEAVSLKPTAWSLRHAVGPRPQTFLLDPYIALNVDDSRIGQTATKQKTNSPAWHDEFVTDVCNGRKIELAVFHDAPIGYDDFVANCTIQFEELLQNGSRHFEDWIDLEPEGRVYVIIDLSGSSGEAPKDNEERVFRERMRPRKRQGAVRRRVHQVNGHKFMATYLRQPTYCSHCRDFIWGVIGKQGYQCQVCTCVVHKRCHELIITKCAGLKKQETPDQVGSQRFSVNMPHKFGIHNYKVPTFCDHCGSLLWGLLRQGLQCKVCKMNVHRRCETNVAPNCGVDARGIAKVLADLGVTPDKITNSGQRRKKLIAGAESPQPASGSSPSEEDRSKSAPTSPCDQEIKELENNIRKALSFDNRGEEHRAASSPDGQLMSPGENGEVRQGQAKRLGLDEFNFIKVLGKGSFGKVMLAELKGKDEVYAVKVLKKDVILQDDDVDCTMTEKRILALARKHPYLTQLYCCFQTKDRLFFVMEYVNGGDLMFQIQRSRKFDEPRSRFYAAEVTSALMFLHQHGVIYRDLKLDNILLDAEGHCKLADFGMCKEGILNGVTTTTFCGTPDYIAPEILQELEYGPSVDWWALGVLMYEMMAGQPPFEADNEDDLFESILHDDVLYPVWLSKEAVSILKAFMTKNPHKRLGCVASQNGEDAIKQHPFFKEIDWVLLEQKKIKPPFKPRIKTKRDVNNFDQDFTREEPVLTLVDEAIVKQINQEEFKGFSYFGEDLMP

CCCCCC1CC1CC1CC1CCCCCCCC(=O)O (stereo not drawn) [BR-101, 8-[2-(2-pentyl-cyclopropylmethyl)-cyclopropyl]-octanoic acid]
effect on PKCα (PKCα): not affected | effect on PKCγ (PKCγ): activated | effects on the other PKC isoforms (other PKC isoforms): relatively small effects | downregulation of PKC (PKC [1]): could not be measured | duration of PKC elevation (PKC [2]): remained elevated for at least four hours | potency for PKCε over other PKC isozymes (PKCε): greater than 7 fold

Source: patent US11820745B2, “PKC-activating compounds for the treatment of neurodegenerative diseases” (Synaptogenix, Inc., priority 2008, dated 2023)
